Where no end group is shown, it is not given here.
Experiments:
[1] = system: EO771 (Murine mammary adenocarcinoma); assay: MTT cytotoxicity, EO771; format: cell-based; conditions: EO771, 24 hours incubation
Source text: (§1) The MTT assay is a colorimetric method for measuring the activity of enzymes in living cells that reduces Thiazolyl blue tetrazolium bromide (MTT) to formazan dyes showing a purple color. In this embodiment, a colorimetric 3-(4.5-dimethylthiazol-2-yl)-2.5-diphenyltetrazodium bromide (MTT) viability assay was used to assess the in vitro cytotoxicity of oncolytic peptides.
(§2) The half inhibition concentration (IC50) is the concentration required by the oncolytic peptides to reach fifty percent inhibition. In one embodiment, the oncolytic peptides were used for IC50 test via MTT colorimetric assay.
(§3) Human lung cancer lines PC9 and A549 and murine pancreatic cancer cell line Panc02 were cultured in RPMI medium supplemented with 10% fetal bovine serum and antibiotic in this embodiment. Additionally, murine hepatoma cell line Hepa 1-6, murine melanoma cell line B16-F10, murine fibrosarcoma cell line MN-11, murine mammary cancer cell line E0771 and human diploid fibroblast (HFW) were cultured in DMEM medium supplemented with 10% fetal bovine serum and antibiotic. Cells were cultured in a humidified incubator containing 5% CO2 at 37° C.
(§4) All cancer cell lines were seeded in a 96-well plate with a concentration of 5000-8000 cells/100 μl/well and incubated for 24 hrs. After medium was removed, 100 μl fresh medium containing peptide (ranging from 50 μM to 0.8 μM) was added to the wells. Following 24 hours incubation, fresh medium with MTT (0.5 mg/ml) was replaced and incubated for 3 hours. After medium/MTT was removed, DMSO was added at 100 μl for dissolving the formazan crystal. Cell survival rate was calculated by measuring the absorbance at 540 nm using a Multi-labeled Microplate Reader (Sunrise™, TECAN).

[2] = system: MN-11 (Murine fibrosarcoma); assay: MTT cytotoxicity, MN-11; format: cell-based; conditions: MN-11, 24 hours incubation
Source text: as §1, §2, §3, §4

[3] = system: Hepa I-6 (Murine hepatocellular carcinoma); assay: MTT cytotoxicity, Hepa 1-6; format: cell-based; conditions: Hepa I-6, 24 hours incubation
Source text: as §1, §2, §3, §4

[4] = system: OECM-1 (Human oral cancer cell); assay: MTT cytotoxicity, OECM-1; format: cell-based; conditions: OECM-1, 24 hours incubation
Source text: as §1, §2, §4

[5] = system: B16-F10 (Murine skin malignant melanoma); assay: MTT cytotoxicity, B16-F10; format: cell-based; conditions: B16-F10, 24 hours incubation
Source text: as §1, §2, §3, §4

HFW (Human fibroblast) = assay: MTT cytotoxicity, HFW; format: cell-based; conditions: 24 hours incubation
Source text: as §1, §2, §3, §4

[6] = system: C9 (Human oral cancer cell); assay: MTT cytotoxicity, C9; format: cell-based; conditions: C9, 24 hours incubation
Source text: as §1, §2, §4

[7] = system: HepG2 Cancer Cells (Human hepatocellular carcinoma); assay: MTT cytotoxicity, HepG2; format: cell-based; conditions: HepG2, 24 hours incubation
Source text: as §1, §2, §4

[8] = Peptide stability in serum; format: in vitro ADME; conditions: 25% (vol/vol) bovine calf serum
Method: Since this kind of peptide is highly toxic, the hope is that the peptide can be decomposed after inducing cancer cells to release danger-associated molecular patterns (DAMPs), and will not stay in the body for too long. After exposure to 25% (vol/vol) bovine calf serum, the residues of peptides were analyzed by liquid chromatography, and the stability at different time points was calculated.

[9] = system: SAS (Human tongue carcinoma); assay: MTT cytotoxicity, SAS; format: cell-based; conditions: 24 hours incubation
Source text: as §1, §2, §4

RBC (Human blood cell) = assay: Cytotoxicity, RBC; format: cell-based
Source text: as §2

[10] = system: A375 (human malignant melanoma); assay: MTT cytotoxicity, A375; format: cell-based; conditions: A375, 24 hours incubation
Source text: as §1, §2, §4

Panc02 = assay: MTT cytotoxicity, Panc02; format: cell-based, murine; conditions: Panc02, 24 hours incubation
Source text: as §1, §2, §3, §4

[11] = system: HUVEC (Human Umbilical Vein Endothelial (Cell)); assay: MTT cytotoxicity, HUVEC; format: cell-based; conditions: 24 hours incubation
Source text: as §1, §2, §4

[12] = system: PC9 (Human non-small cell lung cancer cell); assay: MTT cytotoxicity, PC9; format: cell-based; conditions: PC9, 24 hours incubation
Source text: as §1, §2, §3, §4

[13] = system: A549 (Human non-small cell lung cancer cell); assay: MTT cytotoxicity, A549; format: cell-based; conditions: A549, 24 hours incubation
Source text: as §1, §2, §3, §4

[14] = system: HCT-15 (Human colorectal cancer); assay: MTT cytotoxicity, HCT-15; format: cell-based; conditions: HCT-15, 24 hours incubation
Source text: as §1, §2, §4

[15] = system: NCI-N87 (Human gastric carcinoma); assay: MTT cytotoxicity, NCI-N87; format: cell-based; conditions: NCI-N87, 24 hours incubation
Source text: as §1, §2, §4

“KKKKRRKKWRKWLKWLAKK-NH2 [SEQ ID NO: 7, KKKK-RR-KK-WRK-WLK-WLA-KK-NH2]” gave an IC50 [1] of 6.16 µM, an IC50 [2] of 5.73 µM and an IC50 [3] of 4.92 µM. The IC50 [4] was 10.2 µM, the IC50 [5] was 15.3 µM and the IC50 (HFW (Human fibroblast)) was 12 µM. The IC50 [6] was 9.06 µM, the IC50 [7] was 12.1 µM and the “Serum stability (residual peptide)” value ([8]; 0 hr) was 100.00%. The remaining at 0.5 h ([8]; 0.5 hr, read-out: Serum stability (residual peptide)) was 101%, the “Serum stability (residual peptide)” value ([8]; 1 hr) was 123.30% and the remaining at 2 h ([8]; 2 hr, read-out: Serum stability (residual peptide)) was 72.1%. It also gave a remaining at 4 h ([8]; 4 hr, read-out: Serum stability (residual peptide)) of 59.5%, a remaining at 6 h ([8]; 6 hr, read-out: Serum stability (residual peptide)) of 54.4% and a remaining at 8 h ([8]; 8 hr, read-out: Serum stability (residual peptide)) of 44.4%. It also gave a metabolised at 8 h ([8]; after eight hours, read-out: Decrease of peptide in serum) of roughly 56%, a metabolised at 4 h ([8]; at the fourth hour, read-out: Decrease of peptide in serum) of roughly 40% and an IC50 [9] of 7.67 µM. It also gave an IC50 (RBC (Human blood cell)) of 50.5 µM, an IC50 [10] of 4.01 µM and an IC50 (Panc02) of 10.6 µM. It also gave an IC50 [11] of 3.95 µM, an IC50 [12] of 2.93 µM and an IC50 [13] of 3.3 µM. The IC50 [14] was 7.13 µM and the IC50 [15] was 6.16 µM.

From patent publication US20250250298A1, “ONCOLYTIC PEPTIDE AND USE THEREOF” (Rise Biopharmaceuticals Inc., priority 2022, published 2025)
